Data from ChEMBL document CHEMBL4602602, “Structure-activity relationship (SAR) studies of synthetic glycogen synthase kinase-3β inhibitors: A critical review” (Eur J Med Chem, 2019).

Test system: not listed separately
Assay: Activation of GSK-3 in HEK293 cells assessed as induction in beta-catenin-LEF/TCF regulated reporter gene transcription
Format: cell-based
Settings: Homo sapiens

EC50 | Structure (SMILES)
3600 nM | Cn1cc(C2=C(c3ccc(Cl)cc3Cl)C(=O)NC2=O)c2ccccc21 [SB-216763]

Target: not listed separately
Assay: Inhibition of full length recombinant His-tagged human Glycogen synthase kinase-3 beta expressed in Baculovirus expression system
Settings: not given

IC50 | Structure (SMILES)
140 nM | CN(C)CCCn1cc(C2=C(c3cccc4ccccc34)C(=O)NC2=O)c2cccnc21
14 nM | O=C1NC(=O)C(c2cn(CCCO)c3ncccc23)=C1c1ccccc1C(F)(F)F
4 nM | COc1ccccc1C1=C(c2cn(CCCO)c3ncccc23)C(=O)NC1=O
10 nM | O=C1NC(=O)C(c2cn(CCCO)c3ncccc23)=C1c1ccccc1Cl

Target: T1, Glycogen synthase kinase-3 beta (Homo sapiens, UniProt P49841)
Assay: Inhibition of full length recombinant His-tagged human Glycogen synthase kinase-3 beta expressed in Baculovirus expression system
Settings: not given

T1 sequence (P49841 whole entry): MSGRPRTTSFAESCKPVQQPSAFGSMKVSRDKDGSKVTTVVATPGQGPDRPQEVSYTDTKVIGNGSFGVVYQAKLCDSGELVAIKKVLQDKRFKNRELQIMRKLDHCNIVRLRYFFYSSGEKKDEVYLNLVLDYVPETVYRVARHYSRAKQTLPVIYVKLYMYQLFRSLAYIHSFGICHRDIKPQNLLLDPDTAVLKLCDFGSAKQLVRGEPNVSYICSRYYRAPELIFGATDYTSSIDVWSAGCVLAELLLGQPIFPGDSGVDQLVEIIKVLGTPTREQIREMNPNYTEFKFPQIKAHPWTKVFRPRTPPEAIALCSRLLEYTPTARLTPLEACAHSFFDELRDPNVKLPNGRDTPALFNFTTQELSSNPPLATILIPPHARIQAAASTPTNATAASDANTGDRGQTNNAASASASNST

IC50 | Structure (SMILES)
31 nM | NCCCn1cc(C2=C(c3cccc4ccccc34)C(=O)NC2=O)c2cccnc21

Target: T1, Glycogen synthase kinase-3 beta
Assay: Inhibition of Glycogen synthase kinase-3 beta in human SH-SY5Y cells after 2 hrs by ELISA
Format: cell-based
Settings: not given

IC50 | Structure (SMILES)
239000 nM | COc1ccc(-c2cc(=O)c3c(OC)c([C@H]4O[C@H](CO)[C@@H](O)[C@H](O)[C@H]4O)c(OC)cc3o2)cc1OC
237000 nM | COc1ccc(-c2cc(=O)c3c(OC)c([C@H]4O[C@H](C(=O)O)[C@@H](O)[C@H](O)[C@H]4O)c(OC)cc3o2)cc1OC
2300 nM | COc1ccc(-c2cc(=O)c3c(OC)c([C@H]4O[C@H](C(=O)N[C@H](C)C(F)(F)F)[C@@H](O)[C@H](O)[C@H]4O)c(OC)cc3o2)cc1OC
590 nM | COc1ccc(-c2cc(=O)c3c(OC)c([C@H]4O[C@H](C(=O)N[C@@H](C)C(F)(F)F)[C@@H](O)[C@H](O)[C@H]4O)c(OC)cc3o2)cc1OC

Target: T1, Glycogen synthase kinase-3 beta
Assay: Inhibition of Glycogen synthase kinase-3 beta (unknown origin)
Settings: not given

IC50 | Structure (SMILES)
199 nM | C=CC(=O)Nc1cccc(C2=C(c3cn(C)c4cc(F)ccc34)C(=O)NC2=O)c1
190 nM | COc1ccc(C2=C(Nc3ccc(C(=O)Nc4ccc(Cl)cc4)cc3)C(=O)NC2=O)cc1
200 nM | O=C(CSc1nnc(Cn2c(C(F)(F)F)nc3ccccc32)o1)Nc1ccc(F)cc1
690 nM | C=CC(=O)Nc1cccc(C2=C(c3cn(C)c4cc(OC)ccc34)C(=O)NC2=O)c1
90 nM | COc1ccc(NC(=O)c2ccc(NC3=C(c4ccc(OC)cc4)C(=O)NC3=O)cc2)cc1
170 nM | COc1ccc(C2=C(Nc3ccc(C(=O)Nc4ccccc4)cc3)C(=O)NC2=O)cc1
150 nM | C=CC(=O)Nc1cccc(C2=C(c3cn(C)c4ccc(F)cc34)C(=O)NC2=O)c1
640 nM | Cc1ccc2[nH]nc(C(=O)NCC3CCN(C(=O)Nc4ccccc4)CC3)c2c1
34 nM | C=CC(=O)Nc1cccc(C2=C(c3cn(C(C)C)c4ncccc34)C(=O)NC2=O)c1
120 nM | COc1ccc(NC(=O)c2ccc(NC3=C(c4ccccc4)C(=O)NC3=O)cc2)cc1

More lines, now with the values behind:

Structure (SMILES) | IC50
FC(F)(F)c1nc2ccccc2n1Cc1nnc(SCc2cn(-c3cccnc3)nn2)o1 | 150 nM
CC(C)n1cc(C2=C(c3cccc(NC(=O)CF)c3)C(=O)NC2=O)c2cccnc21 | 17 nM
O=C(CSc1nnc(Cn2c(C(F)(F)F)nc3ccccc32)o1)Nc1ccccc1 | 130 nM
COc1ccc(/C=C/C(O)=C/C(=O)/C=C/c2ccc(OCc3ccccc3)cc2)cc1OC | 900 nM
Fc1ccccc1-n1cc(CSc2nnc(Cn3c(C(F)(F)F)nc4ccccc43)o2)nn1 | 270 nM
FC(F)(F)c1nc2ccccc2n1Cc1nnc(SCc2cn(-c3ccccc3)nn2)o1 | 320 nM
CCc1ccc(-n2cc(CSc3nnc(Cn4c(C(F)(F)F)nc5ccccc54)o3)nn2)cc1 | 390 nM

Target: T1, Glycogen synthase kinase-3 beta
Assay: Inhibition of Glycogen synthase kinase-3 beta (unknown origin) after 30 mins by Kinase-Glo assay
Settings: not given

IC50 | Structure (SMILES)
122 nM | CN1C(=O)CC(c2ccccc2)N=C1SCc1cn(-c2ccccc2F)nn1 (stereo not given)
153 nM | CN1C(=O)CC(c2ccccc2)N=C1SCc1cn(-c2cccc([N+](=O)[O-])c2)nn1 (stereo not given)

Second part, the molecule before the results:

Structure (SMILES) | IC50
CCc1ccc(-n2cc(CSC3=NC(c4ccccc4)CC(=O)N3C)nn2)cc1 (stereo not given) | 94 nM
CN1C(=O)CC(c2ccccc2)N=C1SCc1cn(-c2ccccc2)nn1 (stereo not given) | 916 nM
Cc1ccc(-n2cc(CSC3=NC(c4ccccc4)CC(=O)N3C)nn2)cc1C (stereo not given) | 82 nM
COc1ccccc1-n1cc(CSC2=NC(c3ccccc3)CC(=O)N2C)nn1 (stereo not given) | 1310 nM
CN1C(=O)CC(c2ccccc2)N=C1SCc1cn(-c2ccc(C(C)(C)C)cc2)nn1 (stereo not given) | 1340 nM

Test system: HEK293
Assay: Activation of GSK-3 in HEK293 cells assessed as induction in beta-catenin-LEF/TCF regulated reporter gene transcription at 5 uM relative to control
Format: cell-based
Settings: Homo sapiens

Structure (SMILES) | fold change (FC)
Cn1cc(C2=C(c3ccc(Cl)cc3Cl)C(=O)NC2=O)c2ccccc21 [SB-216763] | 2.5
